{
  "source": "patent US9725462B2",
  "about": "“Pyridopyrimidine derivatives as protein kinase inhibitors” (Merck Patent GmbH, priority 2012, dated 2017)",
  "target": "T1, SYK (Homo sapiens, UniProt P43405)",
  "T1 construct": "2.5 nM SYK, 400 nM Biotin-Aha-Aha-KEDPDYEWPSAKK",
  "test": "SYK Flash Plate Assay (enzyme assay)",
  "type": "biochemical",
  "details": "Syk inhibition",
  "text": "The following abbreviations refer respectively to the definitions below: • aq (aqueous), h (hour), g (gram), L (liter), mg (milligram), MHz (Megahertz), min. (minute), mm (millimeter), mmol (millimole), mM (millimolar), m.p. (melting point), eq (equivalent), mL (milliliter), L (microliter), ACN (acetonitrile), AcOH (acetic acid), CDCl3 (deuterated chloroform), CD3OD (deuterated methanol), CH3CN (acetonitrile), c-hex (cyclohexane), DCC (dicyclohexyl carbodiimide), DCM (dichloromethane), DIC (diisopropyl carbodiimide), DIEA (diisopropylethyl-amine), DMF (dimethylformamide), DMSO (dimethylsulfoxide), DMSO-d6 (deuterated dimethylsulfoxide), EDC (1-(3-dimethyl-amino-propyl)-3-ethylcarbodiimide), ESI (Electro-spray ionization), EtOAc (ethyl acetate), Et2O (diethyl ether), EtOH (ethanol), HATU (dimethylamino-([1,2,3]triazolo[4,5-b]pyridin-3-yloxy)-methylene]-dimethyl-ammonium hexafluorophosphate), HPLC (High Performance Liquid Chromatography), i-PrOH (2-propanol), K2CO3 (potassium carbonate), LC (Liquid Chromatography), MeOH (methanol), MgSO4 (magnesium sulfate), MS (mass spectrometry), MTBE (Methyl tert-butyl ether), NaHCO3 (sodium bicarbonate), NaBH4 (sodium borohydride), NMM (N-methyl morpholine), NMR (Nuclear Magnetic Resonance), PyBOP (benzotriazole-1-yl-oxy-tris-pyrrolidino-phosphonium hexafluorophosphate), RT (room temperature), Rt (retention time), SPE (solid phase extraction), TBTU (2-(1-H-benzotriazole-1-yl)-1,1,3,3-tetramethyluromium tetrafluoro borate), TEA (triethylamine), TFA (trifluoroacetic acid), THF (tetrahydrofuran), TLC (Thin Layer Chromatography), UV (Ultraviolet). Description of the In Vitro Assays SYK Flash Plate Assay\nThe kinase assay is performed either as 384-well Flashplate assay (for e.g. Topcount measurement) or as 384-well Image-Flashplate assay (for LEADseeker measurement).\n2.5 nM SYK, 400 nM Biotin-Aha-Aha-KEDPDYEWPSAKK\nand 10 μM ATP (spiked with 0.3 μCi 33P-ATP/well) are incubated in a total volume of 50 μl (60 mM Hepes, 10 mM MgCl2, 1.2 mM Dithiothreitol, 0.02% Brij35, 0.1% BSA, pH 7.5) with or without test compound for 1 hours at 30° C. The reaction is stopped with 25 μl 200 mM EDTA. After 30 Min at 30° C. the liquid is removed and each well washed thrice with 100 μl 0.9% sodium chloride solution. Non-specific reaction is determined in presence of 0.1 μM Staurosporine. Radioactivity is measured with Topcount (when using Flashplates) or with LEADseeker (when using Image-Flashplates) respectively. Results (e.g. IC50-values) are calculated with program tools provided by the IT-department (e.g. Symyx Assay Explorer, Genedata Screener). In Vivo Assays CIA",
  "note": "Counter-ions that a name gives are not always drawn.",
  "data": [
    {"smiles": "CC(C)C[C@@H](Nc1ncc2cncc(-c3c[nH]c4cc(C(F)(F)F)ccc34)c2n1)C(N)=O", "note": "[Compound A62, (2R)-4-Methyl-2-[[8-[6-(trifluoromethyl)-1H-indol-3-yl]pyrido[4,3-d]-pyrimidin-2-yl]amino]pentanamide]", "values": [
      {"measurement": "IC50", "result": "< 100", "unit": "nM"}
    ]},
    {"smiles": "Nc1ncc(-c2ccc(OC(F)(F)F)cc2)c2nc(N[C@@H]3CCCC[C@@H]3N)ncc12", "note": "(single isomer, unassigned) [Compound A14, N2-((cis)-2-Amino-cyclohexyl)-8-(4-trifluoromethoxy-phenyl)-pyrido[4,3-d]pyrimidine-2,5-diamine]", "values": [
      {"measurement": "IC50", "result": "100 to 1000", "unit": "nM"}
    ]},
    {"smiles": "N[C@@H]1CCCC[C@@H]1Nc1ncc2cncc(-c3cc4ccc(F)cc4[nH]3)c2n1", "note": "(stereo in doubt) [Compound A42, (1S,2R)-N-[8-(6-Fluoro-1H-indol-2-yl)-pyrido[4,3-d]pyrimidin-2-yl]-cyclohexane-1,2-diamine]", "values": [
      {"measurement": "IC50", "result": "1000 to 50000", "unit": "nM"}
    ]},
    {"smiles": "N#Cc1ccc2c(-c3cncc4cnc(N[C@@H]5CCOC[C@@H]5N)nc34)c[nH]c2c1", "note": "[Compound A69, 3[2-((3R,4R)-3-Amino-tetrahydro-pyran-4-ylamino)-pyrido[4,3-d]pyrimidin-8-yl]-1H-indole-6-carbonitrile]", "values": [
      {"measurement": "IC50", "result": "100 to 1000", "unit": "nM"}
    ]},
    {"smiles": "N[C@H]1CCCC[C@H]1Nc1ncc2cncc(-c3cc4cccc(F)c4[nH]3)c2n1", "note": "[Compound A81]", "values": [
      {"measurement": "IC50", "result": "100 to 1000", "unit": "nM"}
    ]},
    {"smiles": "Nc1ncc(-c2ccccc2)c2nc(N[C@@H]3CCCC[C@@H]3N)ncc12", "note": "[Compound A17, N2-((1R,2S)-2-Amino-cyclohexyl)-8-phenyl-pyrido[4,3-d]-pyrimidine-2,5-diamine]", "values": [
      {"measurement": "IC50", "result": "100 to 1000", "unit": "nM"}
    ]},
    {"smiles": "CC(C)C[C@@H](Nc1ncc2cncc(-c3c[nH]c4cc(C#N)ccc34)c2n1)C(N)=O", "note": "[Compound A65, (R)-2-[8-(6-Cyano-1H-indol-3-yl)-pyrido[4,3-d]pyrimidin-2-yl-amino]-4-methyl-pentanoic acid amide]", "values": [
      {"measurement": "IC50", "result": "< 100", "unit": "nM"}
    ]},
    {"smiles": "N#Cc1ccc2c(-c3cnc(C(F)F)c4cnc(N[C@@H]5CCCC[C@@H]5N)nc34)c[nH]c2c1", "note": "[Compound A87, 3-[2-((1R,2S)-2-amino-cyclohexylamino)-5-difluoromethyl-pyrido[4,3-d]-pyrimidin-8-yl]-1H-indole-6-carbonitrile]", "values": [
      {"measurement": "IC50", "result": "< 100", "unit": "nM"}
    ]},
    {"smiles": "Cn1cc(-c2cncc3cnc(N[C@@H]4CCCC[C@@H]4N)nc23)cn1", "note": "[Compound A2, (1R,2S)—N-[8-(1-Methyl-1H-pyrazol-4-yl)-pyrido[4,3-d]pyrimidin-2-yl]-cyclohexane-1,2-diamine hydrochloride]", "values": [
      {"measurement": "IC50", "result": "100 to 1000", "unit": "nM"}
    ]},
    {"smiles": "NC1CCOCC1Nc1ncc2cncc(-c3c[nH]c4cc(C(F)(F)F)ccc34)c2n1", "note": "(stereo not drawn) [Compound A49, cis-N3-[8-[6-(trifluoromethyl)-1H-indol-3-yl]pyrido[4,3-d]pyrimidin-2-yl]tetrahydropyran-3,4-diamine]", "values": [
      {"measurement": "IC50", "result": "< 100", "unit": "nM"}
    ]},
    {"smiles": "N[C@@H]1CCCC[C@@H]1Nc1ncc2cncc(-c3cc4n(n3)CCCC4)c2n1", "note": "(stereo in doubt) [Compound A33, (1S,2R)-N-[8-(4,5,6,7-Tetrahydro-pyrazolo[1,5-a]pyridin-2-yl)-pyrido[4,3-d]pyrimidin-2-yl]-cyclohexane-1,2-diamine]", "values": [
      {"measurement": "IC50", "result": "1000 to 50000", "unit": "nM"}
    ]},
    {"smiles": "Cc1cccc(-c2cncc3cnc(N[C@H]4CCCC[C@H]4N)nc23)c1", "note": "(stereo in doubt) [Compound A31, (1S,2R)-N-(8-m-Tolyl-pyrido[4,3-d]pyrimidin-2-yl)-cyclohexane-1,2-diamine]", "values": [
      {"measurement": "IC50", "result": "100 to 1000", "unit": "nM"}
    ]},
    {"smiles": "N#Cc1cccc2c(-c3cncc4cnc(N[C@@H]5CCCC[C@@H]5N)nc34)c[nH]c12", "note": "[Compound A72, 3-[2-((1R,2S)-2-amino-cyclohexylamino)-pyrido[4,3-d]pyrimidin-8-yl]-1H-indole-7-carbonitrile]", "values": [
      {"measurement": "IC50", "result": "< 100", "unit": "nM"}
    ]},
    {"smiles": "Cn1cc(-c2cnc(N)c3cnc(NCCN)nc23)cn1", "note": "[Compound A6, N2-(2-Amino-ethyl)-8-(1-methyl-1H-pyrazol-4-yl)-pyrido[4,3-d]-pyrimidine-2,5-diamine]", "values": [
      {"measurement": "IC50", "result": "1000 to 50000", "unit": "nM"}
    ]},
    {"smiles": "Cn1cc(-c2cnc(N)c3cnc(N[C@@H]4CCCC[C@@H]4N)nc23)cn1", "note": "(single isomer, unassigned) [Compound A1, N2-((cis)-2-Amino-cyclohexyl)-8-(1-methyl-1H-pyrazol-4-yl)-pyrido[4,3-d]-pyrimidine-2,5-diamine]", "values": [
      {"measurement": "IC50", "result": "< 100", "unit": "nM"}
    ]},
    {"smiles": "Cn1cc(-c2cnc(C(F)F)c3cnc(N[C@@H]4CCCC[C@@H]4N)nc23)cn1", "note": "[Compound A91, (1R,2S)—N-[5-difluoromethyl-8-(1-methyl-1H-pyrazol-4-yl)-pyrido-[4,3-d]pyrimidin-2-yl]-cyclohexane-1,2-diamine]", "values": [
      {"measurement": "IC50", "result": "100 to 1000", "unit": "nM"}
    ]},
    {"smiles": "N[C@@H]1CCCC[C@@H]1Nc1ncc2cncc(-c3cc4n(n3)CCOC4)c2n1", "note": "(stereo in doubt) [Compound A43, (1S,2R)-N-[8-(6,7-Dihydro-4H-pyrazolo[5,1-c][1,4]oxazin-2-yl)-pyrido[4,3-d]pyrimidin-2-yl]-cyclohexane-1,2-diamine]", "values": [
      {"measurement": "IC50", "result": "1000 to 50000", "unit": "nM"}
    ]},
    {"smiles": "N[C@H]1CCCC[C@H]1Nc1ncc2cncc(-c3ccc4[nH]cnc4c3)c2n1", "note": "[Compound A36]", "values": [
      {"measurement": "IC50", "result": "1000 to 50000", "unit": "nM"}
    ]},
    {"smiles": "N[C@H]1CCCC[C@H]1Nc1ncc2c(C(F)F)ncc(-c3c[nH]c4cc(C(F)(F)F)ccc34)c2n1", "note": "[Compound A82]", "values": [
      {"measurement": "IC50", "result": "< 100", "unit": "nM"}
    ]},
    {"smiles": "N[C@H]1CCCC[C@H]1Nc1ncc2cncc(-c3c[nH]c4cnccc34)c2n1", "note": "[Compound A76]", "values": [
      {"measurement": "IC50", "result": "< 100", "unit": "nM"}
    ]},
    {"smiles": "Cc1cccc(-c2cnc(N)c3cnc(N[C@@H]4CCCC[C@@H]4N)nc23)c1", "note": "(single isomer, unassigned) [Compound A22, N2-((cis)-2-Amino-cyclohexyl)-8-m-tolyl-pyrido[4,3-d]pyrimidine-2,5-diamine]", "values": [
      {"measurement": "IC50", "result": "< 100", "unit": "nM"}
    ]},
    {"smiles": "Cc1ncc(-c2c[nH]c3cc(C(F)(F)F)ccc23)c2nc(N[C@H]3CCCC[C@H]3N)ncc12", "note": "(single isomer, unassigned) [Compound A89]", "values": [
      {"measurement": "IC50", "result": "< 100", "unit": "nM"}
    ]},
    {"smiles": "COc1ccc2c(-c3cncc4cnc(N[C@H]5CCCC[C@H]5N)nc34)c[nH]c2c1", "note": "(stereo in doubt) [Compound A40, (1S,2R)-N-[8-(6-Methoxy-1H-indol-3-yl)-pyrido[4,3-d]pyrimidin-2-yl]-cyclohexane-1,2-diamine]", "values": [
      {"measurement": "IC50", "result": "< 100", "unit": "nM"}
    ]},
    {"smiles": "Cc1cccc2[nH]c(-c3cncc4cnc(N[C@H]5CCCC[C@H]5N)nc34)cc12", "note": "(stereo in doubt) [Compound A66, (1S,2R)-N-[8-(4-Methyl-1H-indol-2-yl)-pyrido[4,3-d]pyrimidin-2-yl]-cyclohexane-1,2-diamine]", "values": [
      {"measurement": "IC50", "result": "1000 to 50000", "unit": "nM"}
    ]},
    {"smiles": "COc1cccc2cc(-c3cnc(N)c4cnc(N[C@@H]5CCCC[C@@H]5N)nc34)[nH]c12", "note": "(relative stereo) [Compound A18, N2-(cis-2-Amino-cyclohexyl)-8-(7-methoxy-1H-indol-2-yl)-pyrido[4,3-d]pyrimidine-2,5-diamine]", "values": [
      {"measurement": "IC50", "result": "< 100", "unit": "nM"}
    ]},
    {"smiles": "COC[C@H](N)CNc1ncc2cncc(-c3c[nH]c4cc(C#N)ccc34)c2n1", "note": "[Compound A67, 3-[2-((R)-2-Amino-3-methoxy-propylamino)-pyrido[4,3-d]pyrimidin-8-yl]-1H-indole-6-carbonitrile]", "values": [
      {"measurement": "IC50", "result": "1000 to 50000", "unit": "nM"}
    ]},
    {"smiles": "CC(C)(C)c1ccc(-c2cnc(N)c3cnc(N[C@H]4CCCC[C@H]4N)nc23)cc1", "note": "(relative stereo) [Compound A7, N2-(cis-2-Amino-cyclohexyl)-8-(4-tert-butyl-phenyl)-pyrido[4,3-d]pyrimidine-2,5-diamine]", "values": [
      {"measurement": "IC50", "result": "1000 to 50000", "unit": "nM"}
    ]},
    {"smiles": "N#Cc1ccc2[nH]cc(-c3cncc4cnc(N[C@@H]5CCCC[C@@H]5N)nc34)c2c1", "note": "[Compound A44, 3-[2-((1 R,2S)-2-Amino-cyclohexylamino)-pyrido[4,3-d]pyrimidin-8-yl]-1H-indole-5-carbonitrile]", "values": [
      {"measurement": "IC50", "result": "100 to 1000", "unit": "nM"}
    ]},
    {"smiles": "FC1(CNc2ncc3cncc(-c4c[nH]c5cc(C(F)(F)F)ccc45)c3n2)CCCNC1", "note": "(single isomer, unassigned) [Compound A79, (3-fluoro-piperidin-3-ylmethyl)-[8-(6-trifluoromethyl-1H-indol-3-yl)-pyrido[4,3-d]pyrimidin-2-yl]-amine]", "values": [
      {"measurement": "IC50", "result": "1000 to 50000", "unit": "nM"}
    ]}
  ]
}
